The subject of data set [1] is osteogenically differentiating human embryonic stem cells and fibroblasts. Kind of data set: hESTo biostatistical prediction model (embryotoxicity class). The following applies: for Embryotoxicity classification by the biostatistical model, in words: hESTo, skeletal differentiation. The source says:
(§1) Half-maximal inhibitory doses of cytotoxicity (IC50) and osteogenic differentiation (ID50) were taken from concentration–response curves generated in GraphPad Prism (9.2., GraphPad Software Inc., San Diego, CA, USA) with the “nonlinear regression” function). A biostatistical prediction model based on linear discriminant functions was employed to classify the test chemical into one out of three embryotoxicity categories (strong, weak, and non-embryotoxic). In double combination analyses, a t-test was performed comparing combination to single constituent ID50. For triple combination analyses, a one-way ANOVA with Dunnett’s multiple comparison test (single constituent vs. combination) using GraphPad Prism was conducted. A p-value below 0.05 was considered significant. Heatmaps for double and triple exposures were generated in GraphPad Prism 9.2. Calcium-to-MTT ratios were calculated in Microsoft Excel and imported to ClustVis to generate a principal-component-analysis-based clustered heatmap.
Half-maximal inhibitory concentrations for cell viability (IC50 hESC) and differentiation (ID50 Ca^2+ hESC) were established for penicillin G and all-trans retinoic acid from concentration–response curves. The hESTo then compares these two endpoints to the half-maximal inhibitory concentration for cell viability resulting from exposure of fibroblast cells to the same test compound (IC50 MTT hFF) (Figure 3).

Data set [2] relates to osteogenically differentiating H9 hESCs. The experiment in a line: hESTo calcium assay, osteogenic differentiation of hESCs. Type of data set: cell-based, human. The following applies: for IC50: Homo sapiens, 480 h, read-out: ID50 Ca2+ hESC (half-maximal inhibitory concentration of differentiation). The protocol:
Differentiation was induced from hESC cultures through the addition of a control differentiation medium (CDM) composed of DMEM, 15% FBS (Atlanta Biologicals, Flowery Branch, GA, USA), 1% (v/v) non-essential amino acids, 50 U/mL penicillin, 50 µg/mL streptomycin, and 0.1 mM β-mercaptoethanol. Five days after this initial medium change, CDM was supplemented with 1.2 × 10^−7 M 1,25α(OH)2 vitamin D3 (Calbiochem, Burlington, MA, USA), 0.1 mM β-glycerophosphate, and 20.8 µg/mL ascorbic acid.
(§2) Cells were cultured with concomitant chemical treatment in a double-blind, vehicle-controlled study. […] 241571), and urethane (Sigma Aldrich, cat. no. U2500) were purchased from the indicated companies. Stock solutions were made in DMEM or dimethylsulfoxide, depending on chemical solubility, sonicated when necessary, sterile filtered (0.1 µm), and stored at −20 °C. For liquids, concentrations were calculated from their density. Final dilutions were made in appropriate cell culture medium upon additional sonication of the stock after thawing. Chemical cell treatment started on day 0 of culture/differentiation and continued through day 20 in both H9 hESCs and hFF cells. Medium, including chemical dilutions, were made fresh and changed every other day. All exposures were performed in biological triplicate, each containing technical quintuplicates.
Quantification of calcium in the extracellular matrix of the cultures was performed using a calcium assay normalized to protein content. First, cells were lysed with radio-immunoprecipitation buffer (1% NP40, 0.5% sodium deoxycholate, 0.1% sodium dodecyl sulfate in PBS) on day 20 of cellular differentiation. The remaining matrix was dissolved with 1 N HCl and collected. Both lysates were assayed with Arsenazo III (Genzyme), and absorbance was measured at 655 nm (iMark microplate reader; Bio-Rad Laboratories, Hercules, CA, USA). Absorbances were compared to a CaCl2 standard, and total calcium content was normalized to the total protein content of the sample determined by a Lowry assay, measured against a bovine serum albumin standard curve. The Lowry assay was read at 750 nm (iMark microplate reader; Bio-Rad Laboratories) after a 15 min micro-shake incubation. Calculation of final normalized calcium content was performed according to a previously published formula [33].
as §1

In data set [3] the test system is human foreskin fibroblasts (hFF-1). The experiment in a line: hESTo MTT assay, fibroblast viability. Conditions: for IC50: Homo sapiens, HFF-1, read-out: IC50 MTT hFF. The protocol: Human embryonic stem cells of the line H9 (WiCell) were seeded on Matrigel-coated culture plates and cultured in mTeSR1 medium (Stem Cell Technologies, Seattle, WA, USA) at 37 °C with 5% CO2. Approximately every four days, colonies were treated with accutase for 2–4 min at room temperature to dislodge colonies from the plastic and passaged into fresh Matrigel-coated wells. Human foreskin fibroblasts (hFF-1, American Type Culture Collection, Manassas, VA, USA, cat.no. SCRC-1041), were cultured on 0.1% gelatin-coated 6-well plates in Dulbecco’s Modified Eagle Medium (DMEM) with 10% fetal bovine serum, 1% (v/v) non-essential amino acids, 50 U/mL penicillin, and 50 µg/mL streptomycin at 37 °C in a controlled humidified 5% CO2 incubator. Upon 70% confluency, hFFs were passaged at a 1:6 ratio using phosphate-buffered saline (PBS) washes and 2.5% Trypsin/EDTA every two to four days. While in culture, all cells were routinely checked for bacterial, yeast, and microbial contamination using an inverted microscope and tested for mycoplasma using a PCR-based detection kit (abcam, Fremont, CA, USA, ab289834).
as §2
(§3) Viability response to constituent exposure was determined by 3-[4,5-dimethylthiazol-2yl]-2,5-diphenylterazolium bromide (MTT) assay. Cells were incubated with MTT (5 mg/mL) at 37 °C for 2 h. Following incubation, the supernatant was removed and replaced with 0.04 mol/L HCl in isopropanol. The plate was placed on a shaker for 15 min to dissolve aggregates. The optical density of the solution was read at 595 nm (iMark microplate reader; BioRad).
as §1
(Tetrazolium assays rely on reduction of a dye to a coloured formazan, in cell work by metabolically active cells.)

Data set [4] can be described thus: hESTo MTT assay, hESC viability. The following applies: human. On the procedure:
(§4) Cells were cultured with concomitant chemical treatment in a double-blind, vehicle-controlled study. […] U2500) were purchased from the indicated companies. […] For liquids, concentrations were calculated from their density. Final dilutions were made in appropriate cell culture medium upon additional sonication of the stock after thawing. Chemical cell treatment started on day 0 of culture/differentiation and continued through day 20 in both H9 hESCs and hFF cells. Medium, including chemical dilutions, were made fresh and changed every other day. All exposures were performed in biological triplicate, each containing technical quintuplicates.
as §3, §1

The test system of the next data set is H9 hESCs. The experiment in a line: hESTo MTT assay, hESC viability. On the procedure:
as §4, §3, §1

The conditions of data set [5]: human.
Description: (C) Table listing IC50 and ID50 values, calculated via GraphPad Prism and expressed as µg/mL, embryotoxicity classes calculated according to Genschow et al. [24], and content per cigarette (cig) or gram tobacco as well as actual and calculated plasma concentrations assuming a plasma volume of 3000 mL. […] ID50 = half-maximal inhibitory concentration of differentiation. IC50 = half-maximal concentration of cytotoxicity. hESC, human embryonic stem cell; hFF, human foreskin fibroblast; ND, not determined from the literature [37, 38, 39, 40, 41, 42, 43, 44, 45, 46, 47, 48, 49].
In a further data set the test system is cultured rat embryos. Also noted: method as in PMID 8079346. The following applies: cited from earlier work.
For data set [6] the following is noted: in vivo; cited from earlier work.
The subject of another data set is other aquatic species. Conditions: cited from earlier work.
Setting [7] is: H9 hESC, exposure day 0 through day 20, calcium normalized to protein.

“Also recorded” adds a separate entry of the source. Where a name gives a salt, the structure may show the parent alone. Read-outs that look alike come from different tables or passages of the source.

Turning to `CC=O` [Acetaldehyde], in [1], the “Embryotoxicity classification by the biostatistical model, in words” value (shortened to “Embryotoxicity classification”) was “strongly developmentally osteotoxic”.

As for `C=CC=O` [Acrolein, acrolein], the “Embryotoxicity classification” value in data set [1] was “strongly developmentally osteotoxic”.

Take `C=CC(N)=O` [Acrylamide, acrylamide]: the “Embryotoxicity classification” value in data set [1] was “non-embryotoxic”. In addition, the “Effect on H9 hESC differentiation potential / calcification, in words” value in data set [2] was “caused reductions in cell viability as well as calcification but in very high concentration ranges”.

As for `CC1=C(/C=C/C(C)=C/C=C/C(C)=C/C(=O)O)C(C)(C)CCC1` [All-trans retinoic acid, all-trans retinoic acid, reference compound], the IC50 in data set [3] turned out to be 0.061 µg/mL. Also, the IC50 at 20 days in [4] came to 0.036 µg/mL.

Take `c1ccc2cc3c(ccc4ccccc43)cc2c1` [Benz[a]anthracene, benz[a]anthracene]: the “Embryotoxicity classification” value in [1] was “non-embryotoxic”. The “Effect on hFF cell viability, in words” value in data set [3] (tested concentration range up to 1000 µg/mL) is “did not produce a change in cell viability”. Also, the “IC50 MTT hESC (half-maximal concentration of cytotoxicity)” value in the data set on H9 hESCs (H9 hESC, exposure day 0 through day 20) turned out to be 337.3 µg/mL. The “ID50 Ca2+ hESC (half-maximal inhibitory concentration of differentiation)” value in data set [2] (setting [7]) stood at 239.5 µg/mL.

As for `c1ccc2c(c1)cc1ccc3cccc4ccc2c1c34` [Benzo[a]pyrene, benzo[a]pyrene], in data set [5], the Calculated plasma concentration is 0.000036 µg/mL. Further, the IC50 is 1020 ± 653 µg/mL in data set [3] and 2.11 ± 0.65 µg/mL in data set [2] (setting [7]). In addition, the IC50 at 20 days in data set [4] was 52.9 ± 428 µg/mL.

As for `c1ccc2c(c1)-c1cccc3c1c-2cc1ccccc13` [Benzo[b]fluoranthene, benzo[b]fluoranthene], the “Embryotoxicity classification” value in data set [1] is recorded as “neither chemical classified as developmentally osteotoxic”. Besides, the IC50 in data set [3] came out at 110 ± 76.1 µg/mL; in data set [2] (setting [7]), 25.8 ± 7.24 µg/mL. Further, the IC50 at 20 days in [4] amounted to 61 ± 14.8 µg/mL.

As to `Oc1ccccc1O` [Catechol, catechol], the “Embryotoxicity classification” value in [1] is on record as “strongly embryotoxic; also recorded: strongly developmentally osteotoxic”. Further, in data set [3], the “Concentration above which hFF cell viability changed” value is reported as “above 0.882 µg/mL” and the IC50 was found to be 9.29 ± 1.71 µg/mL. Also, in the data set on cultured rat embryos, the Half-maximal lethality was 50 to 100 µM. Also, the “hESC cytotoxicity endpoint relative to solvent control” value in the data set with H9 hESCs (around 0.882 µg/mL) is listed as “below 25%”. In addition, the IC50 at 20 days in data set [4] worked out at 0.071 ± 0.023 µg/mL. For the same compound, the IC50 in [2] came out at 0.258 ± 0.166 µg/mL. For the same compound, the “hESC differentiation endpoint relative to solvent control” value in [2] (around 0.882 µg/mL) was “below 25%”.

For `CN1C(=O)CC[C@H]1c1cccnc1` [Cotinine, cotinine], in [1], the “Embryotoxicity classification” value is on record as “non-embryotoxic”. In [6], the Approx. plasma concentration was 0.068 to 0.3 µg/mL. For the same compound, the IC50 in [3] is 497 ± 139 µg/mL; in data set [2] (setting [7]), 272 ± 82.8 µg/mL. For the same compound, the IC50 at 20 days in data set [4] amounted to 341 ± 72.9 µg/mL.

As to `O=c1ccc2ccccc2o1` [Coumarin, coumarin], in data set [1], the “Embryotoxicity classification” value was “strongly developmentally osteotoxic”. In addition, the IC50 turned out to be 0.114 µg/mL in data set [3] and 0.024 ± 0.009 µg/mL in [2] (setting [7]). In [4], the IC50 at 20 days is 0.013 µg/mL.

With `CN1CCC(c2cccnc2)C1` (stereo not drawn) [Isonicotine, isonicotine], the “Embryotoxicity classification” value in data set [1] is “neither chemical classified as developmentally osteotoxic”.

Regarding `CN1CCC[C@H]1c1cccnc1` [Nicotine, nicotine], the “Embryotoxicity classification” value in data set [1] is on record as “non-embryotoxic”. Further, the IC50 was over 1000 µg/mL in data set [3] and 633 ± 2350 µg/mL in data set [2] (setting [7]). The IC50 at 20 days in data set [4] was over 1000 µg/mL. In addition, the “Effect on H9 hESC differentiation potential / calcification, in words” value in data set [2] (all tested concentration ranges) is “a decrease in calcification was seen in the higher concentrations”.

Take `CC1(C)S[C@@H]2[C@H](NC(=O)Cc3ccccc3)C(=O)N2[C@H]1C(=O)O` [Penicillin G, penicillin G sodium salt, reference compound]: the Embryotoxicity class result in data set [1] (biostatistical model of Genschow et al. from ID50 hESC, IC50 hESC, IC50 hFF) is listed as “I”. The IC50 in data set [3] is over 1000 µg/mL. Moreover, the IC50 at 20 days in [4] is over 1000 µg/mL.

Take `c1ccc2ncccc2c1` [Quinoline, quinoline]: in data set [1], the “Embryotoxicity classification” value is “weakly developmentally osteotoxic”. The Calculated plasma concentration in data set [5] is 0.000045 µg/mL. In addition, the IC50 is 59.4 ± 19.1 µg/mL in data set [3] and 2.27 ± 0.76 µg/mL in data set [2] (setting [7]). In addition, the Median lethal dose in the data set on other aquatic species is 11 µg/mL. In [4], the IC50 at 20 days was determined as 2.65 ± 0.51 µg/mL.

On to `CCOC(N)=O` [Urethane, urethane], for which the “Embryotoxicity classification” value in [1] is given as “non-embryotoxic”. Moreover, the IC50 in data set [3] and in data set [2] (setting [7]) was over 1000 µg/mL throughout. Moreover, the IC50 at 20 days in data set [4] is over 1000 µg/mL.

Values taken from paper PMC10747453, “Perturbations in Osteogenic Cell Fate Following Exposure to Constituents Present in Tobacco: A Combinatorial Study” (Toxics, 2023).
